Among the data in ChEMBL document CHEMBL1136420, “Comparison of library screening techniques used in the development of dsDNA ligands” (Bioorg Med Chem Lett, 2003) are Kd values, retold here.

pKd: −log10 of the molar value. Numbered stars: 1 amine (or outer) side, 2 acyl side, 3 side chain; on linkers, the order of the positions; unused ones are H or OH. Square brackets hold non-standard residues; d marks the D form. Peptide text beside a SMILES is read from it. Ala(2,4-dioxoquinazolin-3-yl) = N[C@@H](Cn1c(=O)[nH]c2ccccc2c1=O)C(=O)O; Ala(uracil-1-yl) = N[C@@H](Cn1ccc(=O)[nH]c1=O)C(=O)O; X2 = Cc1cn(C[C@H](N[*:1])C(=O)[*:2])c(=O)[nH]c1=O; X3 = Nc1ccn(C[C@H](N[*:1])C(=O)[*:2])c(=O)n1; X1 = Nc1ncnc2c1ncn2C[C@H](N[*:1])C(=O)[*:2]; 2Thi = N[C@@H](Cc1cccs1)C(=O)O; Sar = CNCC(=O)O

This experiment deals with Nucleic Acid. The experiment in a line: Dissociation constant using ethidium-bromide displacement test. It is filed as nucleic-acid assay.
In the case of `CC(=O)N[C@@H](CCCN=C(N)N)C(=O)N[C@@H](Cn1ccc(=O)[nH]c1=O)C(=O)N(C)CC(=O)N[C@@H](Cn1c(=O)[nH]c2ccccc2c1=O)C(=O)N[C@@H](Cn1c(=O)[nH]c2ccccc2c1=O)C(=O)N[C@@H](Cn1cnc2c(N)ncnc21)C(=O)N[C@@H](CCCN=C(N)N)C(N)=O` (Ac-R[Ala(uracil-1-yl)][Sar][Ala(2,4-dioxoquinazolin-3-yl)][Ala(2,4-dioxoquinazolin-3-yl)][X1]R-NH2), the pKd (usually the Kd on a negative log10 scale, so that one unit is a factor of ten) is 3.41.
To `CC(=O)N[C@@H](CCCN=C(N)N)C(=O)N[C@@H](Cn1ccc(=O)[nH]c1=O)C(=O)N(C)CC(=O)N[C@@H](Cn1c(=O)[nH]c2ccccc2c1=O)C(=O)N[C@@H](Cn1c(=O)[nH]c2ccccc2c1=O)C(=O)N[C@@H](Cn1ccc(N)nc1=O)C(=O)N[C@@H](CCCN=C(N)N)C(N)=O` (Ac-R[Ala(uracil-1-yl)][Sar][Ala(2,4-dioxoquinazolin-3-yl)][Ala(2,4-dioxoquinazolin-3-yl)][X3]R-NH2) belongs 3.20; to `CC(=O)N[C@@H](CCCN=C(N)N)C(=O)N[C@@H](Cn1ccc(=O)[nH]c1=O)C(=O)N(C)CC(=O)N[C@@H](Cn1cc(C)c(=O)[nH]c1=O)C(=O)N[C@@H](Cn1c(=O)[nH]c2ccccc2c1=O)C(=O)N[C@@H](Cn1cnc2c(N)ncnc21)C(=O)N[C@@H](CCCN=C(N)N)C(N)=O` (Ac-R[Ala(uracil-1-yl)][Sar][X2][Ala(2,4-dioxoquinazolin-3-yl)][X1]R-NH2), 3.66.
Next, `CC(=O)N[C@@H](CCCN=C(N)N)C(=O)N[C@@H](Cn1ccc(=O)[nH]c1=O)C(=O)N(C)CC(=O)N[C@@H](Cn1c(=O)[nH]c2ccccc2c1=O)C(=O)N[C@@H](Cn1c(=O)[nH]c2ccccc2c1=O)C(=O)N[C@@H](Cn1c(=O)[nH]c2ccccc2c1=O)C(=O)N[C@@H](CCCN=C(N)N)C(N)=O` (Ac-R[Ala(uracil-1-yl)][Sar][Ala(2,4-dioxoquinazolin-3-yl)][Ala(2,4-dioxoquinazolin-3-yl)][Ala(2,4-dioxoquinazolin-3-yl)]R-NH2): 4.04.
In the case of `CC(=O)N[C@@H](CCCN=C(N)N)C(=O)N[C@@H](Cn1ccc(=O)[nH]c1=O)C(=O)N(C)CC(=O)N[C@@H](Cn1c(=O)[nH]c2ccccc2c1=O)C(=O)N[C@@H](Cn1c(=O)[nH]c2ccccc2c1=O)C(=O)N[C@@H](Cc1cccs1)C(=O)N[C@@H](CCCN=C(N)N)C(N)=O` (Ac-R[Ala(uracil-1-yl)][Sar][Ala(2,4-dioxoquinazolin-3-yl)][Ala(2,4-dioxoquinazolin-3-yl)][2Thi]R-NH2), the pKd is 3.64.
Take `CC(=O)N[C@@H](CCCN=C(N)N)C(=O)N[C@@H](Cn1ccc(=O)[nH]c1=O)C(=O)N(C)CC(=O)N[C@@H](Cn1c(=O)[nH]c2ccccc2c1=O)C(=O)N[C@@H](Cn1c(=O)[nH]c2ccccc2c1=O)C(=O)N[C@@H](Cn1ccc(=O)[nH]c1=O)C(=O)N[C@@H](CCCN=C(N)N)C(N)=O` (Ac-R[Ala(uracil-1-yl)][Sar][Ala(2,4-dioxoquinazolin-3-yl)][Ala(2,4-dioxoquinazolin-3-yl)][Ala(uracil-1-yl)]R-NH2): the pKd was 3.21.
Consider `CC(=O)N[C@@H](CCCN=C(N)N)C(=O)N[C@@H](Cn1ccc(=O)[nH]c1=O)C(=O)N(C)CC(=O)N[C@@H](Cn1c(=O)[nH]c2ccccc2c1=O)C(=O)N[C@@H](Cn1c(=O)[nH]c2ccccc2c1=O)C(=O)N[C@@H](Cn1cc(C)c(=O)[nH]c1=O)C(=O)N[C@@H](CCCN=C(N)N)C(N)=O` (Ac-R[Ala(uracil-1-yl)][Sar][Ala(2,4-dioxoquinazolin-3-yl)][Ala(2,4-dioxoquinazolin-3-yl)][X2]R-NH2), for which the pKd was 3.31.
